Experimental data reported in patent publication US5159085A, “2-anilino phenylacetic acid derivatives as inhibitors of PLA2 and lipoxygenase” (American Home Products Corporation, priority 1991, dated 1992).
Like-named read-outs stand apart in the source and are kept apart here.

How the values were obtained:
[1] = tested on: TxB2 synthesis (cyclooxygenase) by rat glycogen-elicited polymorphonuclear leukocytes; test: Inhibition of TxB2 synthesis by rat glycogen-elicited PMN (cyclooxygenase); format: cell-based, rat (female Wistar); details: read-out: IC50 (TxB2 synthesis)
Description: Rat polymorphonuclear leukocytes (PMNs) are obtained from female Wistar rats (150-200 g) which receive an injection of 6% glycogen (10 ml i.p.). Rats are sacrificed 18-24 hours post injection by CO2 asphyxiation and the elicited cells are harvested by peritoneal lavage using physiological saline (0.9% NaCl). The exudate is centrifuged at 400×g for 10 minutes. The supernatant fluid is discarded and the cell pellet is resuspended to a concentration of 2.0×10^7 cells/ml in HBSS containing Ca^++ and Mg^++ and 10 μM L-cysteine.
To 1 ml aliquots of cell suspension, test drugs or vehicle are added, then preincubated at 37° C. for 10 minutes. A 23187 (1 μM), [^3 H]-AA (3.0 μCi/ml) and unlabeled AA (1 μM) are then added and the samples are further incubated for 10 minutes. The reaction is terminated by centrifugation and pelleting cells. Supernatants are then analyzed by HPLC analysis on a 15 cm×4.6 mm ID supelcosil LC-18 (Supelco)(3M) column, using a two solvent system at a flow rate of 1.4 ml total flow as follows:
Percent solvent changes are accomplished in a linear fashion.
Injections: 150 μl of each supernatant is injected directly onto column and ^3 H arachidonic acid metabolites are monitored using an on-line radioactivity detector (Ramona, IN/US, Fairfield, NJ).
Standards: 10^4 -2.0×10^4 dpm of eicosanoids of interest are injected in 90 μl EtOH cocktail.
Co-chromatography with standard [^3 H] leukotriene B4 (LTB4) in medium of stimulated PMN exposed to drug is compared to that found in medium of stimulated cells exposed to no drug, generating percent inhibition.
Results are expressed as percent inhibition at a given compound dose or as an IC50 value.
In this assay, the procedure of Example 19 is carried out as described. However, in order to determine cyclooxygenase activity, the samples are co-chromatographed with authentic reference [^3 H]-TxB2.
The results are calculated as in Example 19 and presented below: […]

human platelet PLA2 = target: T1, human platelet PLA2 (Homo sapiens, UniProt P14555); test: In vitro isolated phospholipase A2 assay, human platelet PLA2 (arachidonic acid release from 3H-AA E. coli substrate); format: biochemical
T1 construct: Semipurified human platelet acid extract PLA2; from tissue; host or cells: human platelets (semipurified acid extract)
T1 sequence (P14555 21-144): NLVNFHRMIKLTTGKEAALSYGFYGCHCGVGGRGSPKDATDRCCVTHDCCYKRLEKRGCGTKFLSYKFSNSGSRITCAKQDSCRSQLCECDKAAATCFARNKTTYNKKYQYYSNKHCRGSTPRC

[2] = target: T2, human synovial fluid PLA2 (Homo sapiens, UniProt P14555); test: In vitro isolated phospholipase A2 assay, human synovial fluid PLA2; format: biochemical
T2 construct: Purified human synovial fluid; from tissue; host or cells: human synovial fluid
T2 sequence (P14555 21-144): T1 sequence (P14555 21-144)
Description: The compounds of the invention are tested in an in vitro isolated phospholipase A2 assay to determine the ability of the test compounds to inhibit the release of arachidonic acid from an arachidonic acid-containing substrate by the action of phospholipase A2 enzyme from human and non-human sources.
(§1) This assay is carried out as follows:
Into a 15 mL polypropylene tube are added the following:
*pre-incubate at room temperature 30 min prior to substrate addition.
^5 Stock 10 mM prepared in dimethyl sulfoxide. Make 1:2 dilution with
dimethyl sulfoxide and add 1 μ L to 100 μL assay tube.
^6 Two human PLA2 enzymes are used:
b) Purified human synovial fluid.
Incubate the 100 μL reaction mixture for 10 minutes at 37° C. in a shaking water bath. The reaction is terminated by the addition of 2 mL tetrahydrofuran, followed by vortexing. NH2 columns (100 μg/mL--Analytichem International) are conditioned with 0.5 mL tetrahydrofuran followed by 0.5 mL tetrahydrofuran/water (2 mL:0.1 mL, v/v).
The sample is loaded onto the columns and slowly drawn through them. The hydrolyzed arachidonic acid retained in the columns is eluted therefrom with 1 mL tetrahydrofuran/glacial acetic acid (2%). The arachidonic acid is transferred to scintillation vials and quantitated by β-counting analysis. A "total counts" sample is prepared by pipetting 25 μL ^3 H-arachidonate E. coli directly into a scintillation vial to which is added 1 mL tetrahydrofuran. 10 mL aquasol (scintillation cocktail) is added to all samples. [formula]

6-keto-PGF1α /TxB2 = test: In vivo murine zymosan peritonitis assay, 6-keto-PGF1α (cyclooxygenase pathway); design: species or system mouse (male CD-1)
Description: The compounds of the invention are evaluated for their ability to inhibit the lipoxygenase and/or cyclooxygenase pathways of arachidonic acid metabolism in the in vivo murine zymosan peritonitis assay.
as §1
Male CD-1 mice (8 weeks old) are placed in plastic boxes in groups of six. Animals are injected with 1 ml i.p. of either 1% zymosan in pyrogen free 0.9% saline or saline (unstimulated control). Compounds are dosed orally 1 hour prior to zymosan injection. Twenty minutes after zymosan injection, the mice are asphyxiated by CO2 inhalation and the peritoneal cavity is lavaged with 2 ml ice cold Hanks Balanced Salt Solution (HBSS) without CaCl2, MgSO4 ·7H2 O and MgCL2 ·6H2 O. Peritoneal lavage fluid from each mouse is removed by syringe and placed in 5 ml plastic test tubes put on ice and volume is noted. Preparation of samples for evaluation by ELISA is as follows: Samples are centrifuged at 800×g for 15 minutes; 1 ml of the supernatant is added to 8 ml ice cold methanol and kept at -70° C. overnight to precipitate protein; and samples are then centrifuged at 800×g for 15 minutes, followed by a drying procedure in a Savant speed vac concentrator. The samples are reconstituted with 1 ml ice cold ELISA buffer and stored at -70° C. until assayed. The assay for eicosanoids (LTC4 and 6-keto-PGF1α) is performed according to conventional ELISA procedures.
Compounds to be tested orally are suspended in 0.5% Tween 80. Compounds to be tested intraperitoneally are suspended in 0.5% methylcellulose in 0.9% saline.
The total metabolite level in lavage fluid/mouse is calculated and the significance is determined by a one-way analysis of variance with LSD comparisons to control (p≤0.05). Drug effects are expressed as a percent change from control values.

carrageenan paw edema = test: Rat carrageenan paw edema assay; format: in vivo, rat (male Sprague-Dawley)
Description: The compounds of the invention are further tested in the rat carrageenan paw edema assay to determine their ability to inhibit the acute inflammatory response.
as §1
140-180 gm Male Sprague-Dawley rats, in groups of 6 animals are injected subcutaneously in the right paw with 0.1 ml of 1% carrageenan at zero time. Mercury plethysmographic readings (ml) of the paw are made at zero time and 3 hours later. Test compounds are suspended or dissolved in 0.5% methylcellulose and given perorally 1 hour prior to carrageenan administration.
The increase in paw volume (edema in ml) produced by the carrageenan is measured. Paw edema is calculated (3 hour volume minus zero time volume), and percent inhibition of edema is determined. Unpaired Student's t-test is used to determine statistical significance.

Structure (SMILES)	IC50 ([1]; Rattus norvegicus, Leukocyte) [µM]	inhibition at 10 µM (human platelet PLA2; read-out: % Inhibition at 10 μM HP) [%]	inhibition at 10 µM ([2]; read-out: % Inhibition at 10 μM HSF) [%]	ED50 (6-keto-PGF1α /TxB2; Mus musculus, po, read-out: ED50 6-keto-PGF) [mg/kg]	% Inhibition (carrageenan paw edema; 0.5 mg/kg peroral) [%]	% Inhibition (carrageenan paw edema; 2.0 mg/kg peroral) [%]	% Inhibition (carrageenan paw edema; 8.0 mg/kg peroral) [%]	ED50 (carrageenan paw edema; Rattus norvegicus, po, 3 h) [mg/kg]	IC50 ([1]; rat PMN, acetic acid) [µM]	inhibition at 10 µM (human platelet PLA2; 10 μM, Table IV, read-out: % Inhibition at a concentration of 10 μM, HP) [%]	inhibition at 10 µM ([2]; 10 μM, Table IV, read-out: % Inhibition at a concentration of 10 μM, HSF) [%]	IC50 ([2]; human synovial fluid) [µM]	% Inhibition 6-keto-PGF (6-keto-PGF1α /TxB2; 50 mg/kg p.o., negative values denote potentiation) [%]	% Inhibition 6-keto-PGF (6-keto-PGF1α /TxB2; 100 mg/kg p.o.) [%]	% Inhibition (carrageenan paw edema; 25 mg/kg peroral) [%]	% Inhibition (carrageenan paw edema; 50 mg/kg peroral) [%]	% Inhibition (carrageenan paw edema; 100 mg/kg peroral) [%]
O=C(O)Cc1ccccc1Nc1c(Cl)cccc1Cl [diclofenac, reference compound]	0.03	23	0	0.77	15	50	75	2.3	–	–	–	–	–	–	–	–	–
O=C(O)Cc1cc(OCc2ccc3ccccc3n2)ccc1Nc1c(Cl)cccc1Cl [Example 2, 2-[(2,6-Dichlorophenyl)amino]-5-(2-quinolylmethoxy)benzene acetic acid]	–	–	–	–	–	–	–	–	~10	12.7	47.6	6.3	-25	65	63	58	66
